Experimental data from paper PMC13086964, “USP7 deubiquitinase stabilizes FAN1 to support DNA crosslink repair and suppress CAG repeat expansion” (Nature Communications, 2026).

How the values were obtained:
Type in all cases: cell-based, human
[1] = system: HeLa FAN1 KO cells; assay: clonogenic survival assay, HeLa FAN1 KO; details: MMC 10, 20, and 40 ng/ml, 24 h, n=3
Experimental: (§1) HeLa and RPE-1 p53 KO cells were transfected with the indicated siRNA. The next day, the cells were seeded in six-well plates. The next day, the cells were treated with MMC for 24 h. Plates were then washed twice with 2 ml of PBS before adding fresh growth medium to the cells, that were then cultured for 13 days at 37 °C before fixation with crystal violet solution [0.5% crystal violet and 20% ethanol (w/v)]. For analysis, plates were scanned and analysed with the ImageJ Plugin ColonyArea using the parameter “intensity percent”. […]
(§2) the mean (dashed lines) are indicated. Representative images are shown (bottom). Scale bar: 10 μm. […]
(§3) Western blot analysis of HeLa cells depleted of the indicated factors. (E) Clonogenic survival assay of the HeLa cells depleted of the indicated factors (Ctrl: black circle; FANCD2: red square; USP7#1: inverted blue triangle; USP7#2: cyan triangle; RAD18: brown diamond) and exposed to increasing doses of MMC for 24 h. Viability of untreated cells was defined as 100%. Data are presented as the means ± SD of four biological replicates (n=4). Representative images are shown (left). (F) Western blot analysis of HeLa and HeLa FAN1 KO cells depleted of the indicated factors. […]

[2] = system: HeLa cells; assay: clonogenic survival assay, HeLa parental; details: MMC 10, 20, and 40 ng/ml, 24 h, n=4
Experimental: as §1, §2, §3

[3] = system: RPE-1 p53 KO cells; assay: clonogenic survival assay, RPE-1 p53 KO; details: 24 h, n = 3
Experimental: Fig. 4 USP7 facilitates FAN1 localization and function during ICL repair. A QIBC analysis of chromatin-bound GFP-FAN1 foci in U2OS^eGFP-FAN1 cells transfected with either non-targeting (Ctrl), USP7 or FANCD2 siRNA oligos. 24 h later, cells were either mock-treated (–) or treated (+) with MMC (150 ng/ml) for 24 h. Color-coded scatterplots (from grey to green) indicate the number of GFP-FAN1 foci per nucleus from one biological replicate. Mean (solid line) and standard deviation (SD) from the mean (dashed lines) are indicated. Representative images are shown (bottom). Scale bar: 10 μm. This experiment was repeated three times. B QIBC analysis of endogenous FANCD2 foci in U2OS^eGFP-FAN1 cells transfected with either non-targeting (Ctrl) or the indicated siRNA oligos. 24 h later, cells were either mock-treated (−) or treated (+) with MMC (150 ng/ml) for 24 h. […] 24 h later, cells were either mock-treated (−) or treated (+) with MMC (1 μg/ml) for 48 h and whole-cell lysates were analysed by immunoblotting. […] Relative FAN1, cleaved PARP-1 or cleaved Caspase-3 protein levels were determined by quantification of the respective band intensity (normalized to GAPDH) with the ImageJ software. […]
HeLa and RPE-1 p53 KO cells were transfected with the indicated siRNA. […] For analysis, plates were scanned and analysed with the ImageJ Plugin ColonyArea using the parameter “intensity percent”.

Structure (SMILES): CO[C@@]12[C@H](COC(N)=O)C3=C(C(=O)C(C)=C(N)C3=O)N1C[C@@H]1N[C@@H]12 [MMC, Mitomycin C]
- MMC sensitivity, RAD18 or FANCD2 depletion [1]: additive increase in sensitivity
- MMC sensitivity, USP7 depletion [1]: did not exacerbate MMC hypersensitivity
- MMC sensitivity, RAD18 or FANCD2 depletion [2]: more pronounced effects
- MMC sensitivity, USP7 depletion ([2]; two independent USP7 siRNA): only a modest increase MMC sensitivity
- MMC sensitivity, FAN1/USP7 co-depletion [3]: did not enhance sensitivity beyond individual knock-down of FAN1
- MMC sensitivity, FANCD2-depleted [3]: strongest MMC sensitivity
